According to patent US6737383B1, “Herbicidal oxadiazolidines” (priority 1999, dated 2004):

How the values were obtained:
blackgrass = test: Test E blackgrass; format: in vivo, Alopecurus myosuroides; conditions: Preemergence; for Blackgrass plant response rating (0 to 100 scale): Rate 250 g/ha
green foxtail = test: Test E green foxtail; format: in vivo, Setaria viridis; conditions: Preemergence; for Green foxtail plant response rating (0 to 100 scale): Rate 250 g/ha
purple nutsedge = test: Test B pre/postemergence purple nutsedge; format: in vivo, Cyperus rotundus; conditions: for Nutsedge plant response rating (0 to 10 scale): 0 is no effect
Outline: (§1)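 Test chemicals in a non-phytotoxic solvent mixture with surfactant were sprayed preemergence onto planted seeds and postemergence onto plants 2 to 18 cm tall (1- to 4-leaf stage). After twelve to sixteen days in a greenhouse, injury was visually rated against untreated controls from 0 (no effect) to 10 (complete control).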

winter barley = test: Test E winter barley; format: in vivo, Hordeum vulgare; conditions: Preemergence; for Barley (winter) plant response rating (0 to 100 scale): Rate 250 g/ha
winter wheat [1] = test: Test E winter wheat; format: in vivo, Triticum aestivum; conditions: Preemergence; for Wheat (winter) plant response rating (0 to 100 scale): Rate 250 g/ha
Italian ryegrass = test: Test E Italian ryegrass; format: in vivo, Lolium multiflorum; conditions: Preemergence; for I. Ryegrass plant response rating (0 to 100 scale): Rate 250 g/ha
rice = test: Test B flood test rice; format: in vivo, Oryza sativa
Outline: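 Read-out is a visual response score from 0 (no effect) to 10 (complete control), assigned by comparison with untreated controls. Treatment was applied at the 2-leaf stage, and plants stayed in the greenhouse for twelve to sixteen days before scoring.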

sugar beet = test: Test B pre/postemergence sugar beet; format: in vivo, Beta vulgaris; conditions: for Sugarbeets plant response rating (0 to 10 scale): 0 is no effect
Outline: as §1

wild oat = test: Test E wild oat; format: in vivo, Avena fatua; conditions: Preemergence; for Wild oat plant response rating (0 to 100 scale): Rate 250 g/ha
winter wheat [2] = test: Test E winter wheat; format: in vivo, Triticum aestivum; conditions: Postemergence; for Plant response rating, Wheat (winter): 0 to 100 scale
Description: […] All plant species were grown using normal greenhouse practices. Crop and weed species include annual bluegrass (Poa annua), blackgrass (Alopecurus myosuroides), black nightshade (Solanum nigra), chickweed (Stellaria media), common poppy (Papaver rhoeas), deadnettle (Lamium amplexicaule), downy brome (Bromus tectorum), field violet (Viola arvensis), galium (Galium aparine), green foxtail (Setaria viridis), Italian ryegrass (Lolium multiflorum), jointed goatgrass (Aegilops cylindrica), kochia (Kochia scoparia), lambsquarters (Chenopodium album), littleseed canarygrass (Phalaris minor), rape (Brassica napus), redroot pigweed (Amaranthus retroflexus), Russian thistle (Salsola kali), scentless chamomile (Matricaria inodora), spring barley (Hordeum vulgare), sugar beet (Beta vulgaris), sunflower (Helianthus annuus), ivyleaf speedwell (Veronica hederaefolia), spring wheat (Triticum aestivum), winter wheat (Triticum aestivum), wild buckwheat (Polygonum convolvulus), wild mustard (Sinapis arvensis), wild oat (Avena fatua), windgrass (Apera spica-venti) and winter barley (Hordeum vulgare).
Treated plants and untreated controls were maintained in a greenhouse for approximately 21 to 28 days, after which all treated plants were compared to untreated controls and visually evaluated. […] A dash response (-) means no test result.

pigweed = test: Test B pre/postemergence pigweed; format: in vivo, Amaranthus retroflexus; conditions: for Redroot pigweed plant response rating (0 to 10 scale): 0 is no effect
Outline: as §1

[3] = Rate 125 g/ha, 0 to 100 scale (0 no effect, 100 complete control)
[4] = Postemergence, Rate 125 g/ha, scale of 0 to 10 where 0 is no effect and 10 is complete control
[5] = Preemergence, Rate 62 g/ha, scale 0 to 10 (0 no effect, 10 complete control)
[6] = Preemergence, Rate 125 g/ha, 10 is complete control
[7] = Preemergence, Rate 250 g/ha, scale 0 to 10, 0 is no effect, 10 is complete control
[8] = Rate 62 g/ha, Postemergence, scale of 0 to 10 where 0 is no effect and 10 is complete control
[9] = Rate 250 g/ha, Postemergence, scale 0 to 10, 0 is no effect, 10 is complete control
[10] = Rate 500 g/ha, Postemergence, scale 0 to 10
[11] = Preemergence, Rate 500 g/ha, scale 0 to 10 (0 no effect, 10 complete control)
[12] = Rate 500 g/ha, 0 to 100 scale where 0 is no effect and 100 is complete control
[13] = Rate 1000 g/ha, 0 to 100 scale where 0 is no effect and 100 is complete control
[14] = Preemergence, Rate 62 g/ha, scale of 0 to 10 where 0 is no effect and 10 is complete control

CC(C)N(C(=O)n1oc(=O)n(C)c1=O)c1ccc(Cl)cc1 [Compound 137]
9: Redroot pigweed plant response rating (pigweed; [5])
4: Nutsedge plant response rating (purple nutsedge; [10]) | Redroot pigweed plant response rating (pigweed; [4])
30: Blackgrass plant response rating (0 to 100 scale) (blackgrass) | Wheat (winter) plant response rating (0 to 100 scale) (winter wheat [1])
20: Plant response rating, Blackgrass (blackgrass; [3]) | Plant response rating, Barley (winter) (winter barley; [3]) | Barley (winter) plant response rating (0 to 100 scale) (winter barley) | Plant response rating, Wheat (winter) (winter wheat [1]; [3]) | Plant response rating, I. Ryegrass (Italian ryegrass; [3]) | Plant response rating, Wild oat (wild oat; [3]) | Wheat (winter) plant response rating (winter wheat [2]; Rate 250 g/ha, 0 to 100 scale where 0 is no effect and 100 is complete control)
0: Nutsedge plant response rating (purple nutsedge; [4]) | Nutsedge plant response rating (purple nutsedge; [5]) | Nutsedge plant response rating (0 to 10 scale) (purple nutsedge; [6]) | Nutsedge plant response rating (purple nutsedge; [7]) | Nutsedge plant response rating (purple nutsedge; [8]) | Rice plant response rating (rice; Postemergence (flood test species), Rate 125 g/ha, scale of 0 to 10 where 0 is no effect and 10 is complete control) | Rice plant response rating (rice; Rate 31 g/ha, Postemergence section (flood test species), scale 0 to 10) | Rice plant response rating (rice; Rate 62 g/ha, Postemergence section, flood test species, scale of 0 to 10 where 0 is no effect and 10 is complete control) | Plant response rating, Rice (rice; Rate 250 g/ha, Postemergence (flood test), scale 0 to 10, 0 is no effect, 10 is complete control)
15: Plant response rating, Green foxtail (green foxtail; [3])
6: Sugarbeets plant response rating (sugar beet; [5]) | Sugarbeets plant response rating (sugar beet; [10]) | Redroot pigweed plant response rating (pigweed; [10])
3: Plant response rating, Nutsedge (purple nutsedge; [9]) | Sugarbeets plant response rating (sugar beet; [4]) | Sugarbeets plant response rating (sugar beet; [8])
10: Sugarbeets plant response rating (0 to 10 scale) (sugar beet; [6]) | Sugarbeets plant response rating (sugar beet; [7]) | Sugarbeets plant response rating (sugar beet; [11]) | Wild oat plant response rating (0 to 100 scale) (wild oat) | Plant response rating, Wheat (winter) (winter wheat [2]; Rate 125 g/ha) | Redroot pigweed plant response rating (0 to 10 scale) (pigweed; [6]) | Redroot pigweed plant response rating (pigweed; [7]) | Redroot pigweed plant response rating (pigweed; [11])
50: Green foxtail plant response rating (0 to 100 scale) (green foxtail) | I. Ryegrass plant response rating (0 to 100 scale) (Italian ryegrass)
2: Redroot pigweed plant response rating (pigweed; [8])
5: Plant response rating, Sugarbeets (sugar beet; [9]) | Plant response rating, Redroot pigweed (pigweed; [9])

CC(C)N(C(=O)n1oc(=O)n([C@@H](C)c2ccccc2)c1=O)c1ccccc1 [Compound 173]
40: Plant response rating, Barley (winter) (winter barley; [12]) | Plant response rating, Barley (winter) (winter barley; [13]) | Plant response rating, Wheat (winter) (winter wheat [2]; Rate 500 g/ha, 0 is no effect, 100 is complete control)
5: Sugarbeets plant response rating (sugar beet; [10]) | Redroot pigweed plant response rating (pigweed; [11])
20: Wheat (winter) plant response rating (0 to 100 scale) (winter wheat [1])
6: Sugarbeets plant response rating (sugar beet; [11])
85: Green foxtail plant response rating (0 to 100 scale) (green foxtail)
2: Sugarbeets plant response rating (0 to 10 scale) (sugar beet; [6])
98: Plant response rating, Blackgrass (blackgrass; [13]) | Plant response rating, I. Ryegrass (Italian ryegrass; [13])
3: Sugarbeets plant response rating (sugar beet; [7])
70: Plant response rating, Blackgrass (blackgrass; [12])
50: Blackgrass plant response rating (0 to 100 scale) (blackgrass) | Plant response rating, Wheat (winter) (winter wheat [1]; [13]) | Wild oat plant response rating (0 to 100 scale) (wild oat) | Plant response rating, Wild oat (wild oat; [13])
35: I. Ryegrass plant response rating (0 to 100 scale) (Italian ryegrass)
60: Plant response rating, Wheat (winter) (winter wheat [2]; Rate 1000 g/ha, 0 is no effect and 100 is complete control)
100: Plant response rating, Green foxtail (green foxtail; [13])
45: Plant response rating, I. Ryegrass (Italian ryegrass; [12]) | Plant response rating, Wild oat (wild oat; [12])
0: Nutsedge plant response rating (purple nutsedge; [4]) | Nutsedge plant response rating (purple nutsedge; [14]) | Nutsedge plant response rating (0 to 10 scale) (purple nutsedge; [6]) | Nutsedge plant response rating (purple nutsedge; [7]) | Nutsedge plant response rating (purple nutsedge; [11]) | Nutsedge plant response rating (purple nutsedge; [8]) | Plant response rating, Nutsedge (purple nutsedge; [9]) | Nutsedge plant response rating (purple nutsedge; [10]) | Sugarbeets plant response rating (sugar beet; [4]) | Sugarbeets plant response rating (sugar beet; [14]) | Sugarbeets plant response rating (sugar beet; [8]) | Plant response rating, Sugarbeets (sugar beet; [9]) | Redroot pigweed plant response rating (pigweed; [4]) | Redroot pigweed plant response rating (pigweed; [14]) | Redroot pigweed plant response rating (0 to 10 scale) (pigweed; [6]) | Redroot pigweed plant response rating (pigweed; [7]) | Redroot pigweed plant response rating (pigweed; [8]) | Plant response rating, Redroot pigweed (pigweed; [9]) | Redroot pigweed plant response rating (pigweed; [10])
30: Barley (winter) plant response rating (0 to 100 scale) (winter barley) | Plant response rating, Wheat (winter) (winter wheat [1]; [12])
